Results: ChEMBL document CHEMBL1133417, “N-[[1-(2-phenylethyl)pyrrolidin-2-yl]methyl]cyclohexanecarboxamides as selective 5-HT1A receptor agonists” (Bioorg Med Chem Lett, 2000)

How the values were obtained:
[1] = target: T1, Serotonin 2 (5-HT2) receptor (Rattus norvegicus, UniProt P30994+P08909+P14842); assay: Inhibitory concentration against 5-hydroxytryptamine 2 receptor from striata of male Wistar rats by displacement of [3H]-ketanserin; type: protein assay
[2] = target: T2, D(2) dopamine receptor (Homo sapiens, UniProt P14416); assay: Inhibitory concentration against binding of Dopamine receptor D2 by displacement of [3H]spiperone
T2 sequence (P14416 whole entry): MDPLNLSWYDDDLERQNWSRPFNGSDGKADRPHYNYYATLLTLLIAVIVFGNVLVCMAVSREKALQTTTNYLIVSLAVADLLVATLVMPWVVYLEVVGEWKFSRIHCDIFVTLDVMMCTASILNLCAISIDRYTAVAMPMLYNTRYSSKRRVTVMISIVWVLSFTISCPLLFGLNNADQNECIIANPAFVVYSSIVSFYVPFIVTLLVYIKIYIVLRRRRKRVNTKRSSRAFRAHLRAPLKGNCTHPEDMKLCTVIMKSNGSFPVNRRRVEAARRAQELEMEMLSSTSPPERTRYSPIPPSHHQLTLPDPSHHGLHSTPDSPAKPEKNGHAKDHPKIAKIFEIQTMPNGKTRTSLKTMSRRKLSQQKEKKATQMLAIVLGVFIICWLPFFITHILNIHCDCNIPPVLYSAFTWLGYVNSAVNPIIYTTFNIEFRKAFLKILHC

[3] = target: T3, 5-hydroxytryptamine receptor 1A (Rattus norvegicus, UniProt P19327); assay: Inhibitory concentration against binding of 5-hydroxytryptamine 1A receptor from striata of male Wistar rats by displacement of [3H]8-OH-DPAT
T3 sequence (P19327 whole entry): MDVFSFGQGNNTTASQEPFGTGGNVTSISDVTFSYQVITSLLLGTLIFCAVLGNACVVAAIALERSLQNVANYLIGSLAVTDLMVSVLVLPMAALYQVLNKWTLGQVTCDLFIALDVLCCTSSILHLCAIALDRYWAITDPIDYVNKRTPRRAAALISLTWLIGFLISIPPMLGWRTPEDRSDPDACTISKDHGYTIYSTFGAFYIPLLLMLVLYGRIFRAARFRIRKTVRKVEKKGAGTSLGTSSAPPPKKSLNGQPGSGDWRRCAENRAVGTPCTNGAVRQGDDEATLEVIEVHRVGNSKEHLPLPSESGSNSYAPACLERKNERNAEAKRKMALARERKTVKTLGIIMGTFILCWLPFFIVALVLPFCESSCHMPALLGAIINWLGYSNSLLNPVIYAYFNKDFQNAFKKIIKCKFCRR

[4] = target: T3, 5-hydroxytryptamine receptor 1A; assay: Displacement of [3H]8-OH-DPAT from rat striata 5-hydroxytryptamine 1A receptor
[5] = target: T1, Serotonin 2 (5-HT2) receptor; assay: Binding affinity for 5-hydroxytryptamine 2 receptor from striata of male Wistar rats by displacement of [3H]ketanserin; type: protein assay
[6] = target: T1, Serotonin 2 (5-HT2) receptor; assay: Inhibitory concentration against binding of 5-hydroxytryptamine 2 receptor from striata of male Wistar rats by displacement of [3H]-ketanserin; type: protein assay
[7] = target: T2, D(2) dopamine receptor; assay: Binding affinity for Dopamine receptor D2 by displacement of [3H]-spiperone

| Compound | IC50 [2] [nM] | Ki [4] [nM] | Ki [5] [nM l-1] | Ki [7] [nM] | other results |
| --- | --- | --- | --- | --- | --- |
| O=C(NC[C@@H]1CCCN1CCc1ccccc1)c1ccccc1 | > 1000 | 4.6 | 430 | – | – |
| CCCCN1CCC[C@@H]1CNC(=O)c1cc(Cl)cc2c1OCCN2C | – | – | – | 630 | Ki ([5]; read-out: Ki): 86 nM |
| CN1CCOc2c(C(=O)NC[C@H]3CCCN3CCc3ccccc3)cc(Cl)cc21 | – | – | – | – | IC50 [6]: > 1000 nM l-1 |
| CN1CCOc2c(C(=O)NC[C@@H]3CCCN3CCc3ccccc3)cc(Cl)cc21 | – | – | – | – | Ki ([5]; read-out: Ki): 280 nM |
| CSc1cccc(C(=O)NC[C@@H]2CCCN2CCc2ccccc2)c1 | > 1000 | 4.3 | 160 | – | – |
| COc1ccc(SC)cc1C(=O)NC[C@@H]1CCCN1CCc1ccccc1 | – | 24 | 170 | 460 | – |
| O=C(NC[C@H]1CCCN1CCc1ccccc1)C1CCCCC1 | > 1000 | 190 | – | – | IC50 [1]: > 1000 nM l-1 |
| O=C(NC[C@@H]1CCCN1CCc1ccccc1)C1CCCCC1 | > 1000 | 0.49 | 240 | – | – |
| CCCN(CCC)C1CCc2cccc(O)c2C1 (stereo unspecified) [8-OH-DPAT] | – | – | – | – | IC50 [1]: > 1000 nM l-1 |
| O=C(c1ccc(F)cc1)C1CCN(CCn2c(=O)[nH]c3ccccc3c2=O)CC1 [KETANSERIN] | – | – | – | 240 | IC50 [3]: > 1000 nM |

Further lines, with some results ahead:

| IC50 [2] [nM] | Ki [4] [nM] | Ki [5] [nM l-1] | Ki [7] [nM] | Compound | other results |
| --- | --- | --- | --- | --- | --- |
| > 1000 | – | – | – | O=C(NC[C@H]1CCCN1CCc1ccccc1)c1ccccc1 | IC50 [1]: > 1000 nM l-1; IC50 [3]: > 1000 nM |
| > 1000 | 110 | – | – | CSc1cccc(C(=O)NC[C@H]2CCCN2CCc2ccccc2)c1 | IC50 [6]: > 1000 nM l-1 |
| – | 21 | 660 | 120 | COc1cc2c(c(C(=O)NC[C@@H]3CCCN3CCc3ccccc3)c1)OCC2 | – |
| – | 100 | 430 | 6.7 | CSc1cc2c(c(C(=O)NC[C@H]3CCCN3CCc3ccccc3)c1)OCC2 | – |
| – | – | – | 12 | CCCCN1CCC[C@H]1CNC(=O)c1cc(Cl)cc2c1OCCN2C | Ki ([5]; read-out: Ki): 300 nM |
